The values that follow come from PMC11238318 (ACS Omega, 2024).

Each structure is given as a SMILES string.

In this assay the target is Pyruvate dehydrogenase kinase 3 (PDK3) (Homo sapiens, UniProt Q15120). The experiment in a line: intrinsic Trp fluorescence quenching of purified PDK3. It counts as binding.
Chain of Pyruvate dehydrogenase kinase 3 (PDK3) (Q15120 whole entry): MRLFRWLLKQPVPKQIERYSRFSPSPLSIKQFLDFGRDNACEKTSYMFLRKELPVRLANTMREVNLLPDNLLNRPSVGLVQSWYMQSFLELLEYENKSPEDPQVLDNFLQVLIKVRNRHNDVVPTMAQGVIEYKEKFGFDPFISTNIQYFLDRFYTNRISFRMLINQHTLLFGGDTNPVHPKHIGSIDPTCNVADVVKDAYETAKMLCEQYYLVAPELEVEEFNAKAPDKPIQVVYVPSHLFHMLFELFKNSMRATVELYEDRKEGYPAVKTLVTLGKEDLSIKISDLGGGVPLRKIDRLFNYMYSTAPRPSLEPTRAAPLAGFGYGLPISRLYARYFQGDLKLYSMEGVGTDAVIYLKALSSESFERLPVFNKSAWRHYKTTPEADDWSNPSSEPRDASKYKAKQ

With `O=c1c(O)c(-c2cc(O)c(O)c(O)c2)oc2cc(O)cc(O)c12` [MT, Myricetin], binding was characterised by a dissociation constant (Kd) of 8.77 µM.

One may read the Kd as the equilibrium constant for the complex coming apart. A high value points to a looser complex.
